Source: patent publication US11208400B2, “Substituted 6-(1H-pyrazol-1-yl)pyrimidin-4-amine derivatives and uses thereof” (Bayer Aktiengesellschaft, priority 2016, dated 2021)

biological target: T1, human Npt2a (Homo sapiens, UniProt Q06495); test: Npt2a activity cell based assay, membrane potential dye, CHO T-REx hNpt2a cells; conditions: doxycycline-induced, depolarization by sodium phosphate influx, average or median values if tested more than once
T1 construct: expressed in transfected cells
T1 sequence (Q06495 1-639): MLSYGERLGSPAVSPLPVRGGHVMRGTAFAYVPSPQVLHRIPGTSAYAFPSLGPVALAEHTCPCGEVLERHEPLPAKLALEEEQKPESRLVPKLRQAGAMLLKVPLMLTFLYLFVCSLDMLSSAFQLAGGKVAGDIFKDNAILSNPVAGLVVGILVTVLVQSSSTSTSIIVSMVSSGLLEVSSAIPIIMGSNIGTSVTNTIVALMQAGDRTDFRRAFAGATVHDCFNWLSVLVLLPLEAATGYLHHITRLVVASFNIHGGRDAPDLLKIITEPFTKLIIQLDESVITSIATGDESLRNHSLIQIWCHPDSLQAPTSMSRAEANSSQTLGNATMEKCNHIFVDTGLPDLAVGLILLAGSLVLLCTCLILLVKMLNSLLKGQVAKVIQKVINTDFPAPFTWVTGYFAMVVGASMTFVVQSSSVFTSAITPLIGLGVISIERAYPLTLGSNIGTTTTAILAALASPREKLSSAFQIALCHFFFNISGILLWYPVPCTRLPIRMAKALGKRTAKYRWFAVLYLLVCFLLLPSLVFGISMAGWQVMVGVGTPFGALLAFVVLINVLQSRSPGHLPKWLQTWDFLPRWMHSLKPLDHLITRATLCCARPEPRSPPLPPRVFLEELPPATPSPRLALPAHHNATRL
Method in brief: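 Cells were doxycycline-induced CHO T-REx hNpt2a, dye-loaded and pretreated 5 min at RT with 1 nM–50 μM compound in Na-free pH 7.4 buffer. IC50 was fit to the post/pre-trigger fluorescence ratio.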

**Q.** `COc1c(Nc2cc(-n3nc(C)c(Cl)c3C)ncn2)nn(C)c1-c1ccc(C#N)cc1` [Example 540, 4-(3-{[6-(4-chloro-3,5-dimethyl-1H-pyrazol-1-yl)pyrimidin-4-yl]amino}-4-methoxy-1-methyl-1H-pyrazol-5-yl)benzonitrile] was tested. Which IC50 did it give?
**A.** 0.017 µM

**Q.** For `Cc1nn(-c2ccc(C#N)cc2)c(C)c1Nc1cc(-n2nc(C)c(C(C)(C)O)c2C)ncn1` [Example 366, 4-[4-({6-[4-(2-hydroxypropan-2-yl)-3,5-dimethyl-1H-pyrazol-1-yl]pyrimidin-4-yl}amino)-3,5-dimethyl-1H-pyrazol-1-yl]benzonitrile], which IC50 is on record?
**A.** 0.15 µM

**Q.** How did the IC50 turn out when `CCc1c(-c2ccc(F)cc2)nn(CC2CC2)c1Nc1cc(-n2nc(C)c(C#N)c2C)ncn1` [Example 349, 1-(6-{[1-(cyclopropylmethyl)-4-ethyl-3-(4-fluorophenyl)-1H-pyrazol-5-yl]amino}pyrimidin-4-yl)-3,5-dimethyl-1H-pyrazole-4-carbonitrile] was run?
**A.** 0.049 µM

**Q.** How did the IC50 turn out when `Cc1cc(C)n(-c2cc(Nc3n[nH]c(-c4ccc(F)cc4)c3C)ncn2)n1` [Example 17, 6-(3,5-dimethyl-1H-pyrazol-1-yl)-N-[5-(4-fluorophenyl)-4-methyl-1H-pyrazol-3-yl]pyrimidin-4-amine] was run?
**A.** 0.1 µM

**Q.** With `Cc1nn(-c2cc(Nc3nn(C)c(-c4ccc(F)cc4)c3Cl)ncn2)c(C)c1C(C)(C)O` [Example 276, 2-[1-(6-{[4-chloro-5-(4-fluorophenyl)-1-methyl-1H-pyrazol-3-yl]amino}pyrimidin-4-yl)-3,5-dimethyl-1H-pyrazol-4-yl]propan-2-ol] as the compound, how does the IC50 read?
**A.** 0.025 µM

**Q.** Which IC50 does the source give for `Cc1nn(-c2cc(Nc3nn(CC4CC4)c(-c4ccc(F)cc4)c3Cl)ncn2)c(C(F)F)c1Cl` [Example 184, N-[4-chloro-1-(cyclopropylmethyl)-5-(4-fluorophenyl)-1H-pyrazol-3-yl]-6-[4-chloro-5-(difluoromethyl)-3-methyl-1H-pyrazol-1-yl]pyrimidin-4-amine] here?
**A.** 1.2 µM

**Q.** With `Cc1cc(C)n(-c2cc(Nc3c(Cl)c(-c4ccc(F)cc4)nn3CC(F)F)ncn2)n1` [Example 129, N-[4-chloro-1-(2,2-difluoroethyl)-3-(4-fluorophenyl)-1H-pyrazol-5-yl]-6-(3,5-dimethyl-1H-pyrazol-1-yl)pyrimidin-4-amine] as the compound, how does the IC50 read?
**A.** 0.078 µM

**Q.** With `CCc1c(Nc2cc(-n3nc(C)cc3CO)ncn2)nn(C)c1-c1ccc(F)cc1` [Example 104, [1-(6-{[4-ethyl-5-(4-fluorophenyl)-1-methyl-1H-pyrazol-3-yl]amino}pyrimidin-4-yl)-3-methyl-1H-pyrazol-5-yl]methanol] as the compound, how does the IC50 read?
**A.** 0.15 µM

**Q.** Which IC50 does the source give for `COc1ccc(-c2nn(CC3CC3)c(Nc3cc(-n4nc(C)c(C(F)(F)F)c4C)ncn3)c2C)cc1` [Example 486, N-[1-(cyclopropylmethyl)-3-(4-methoxyphenyl)-4-methyl-1H-pyrazol-5-yl]-6-[3,5-dimethyl-4-(trifluoromethyl)-1H-pyrazol-1-yl]pyrimidin-4-amine] here?
**A.** 0.059 µM

**Q.** For `CCc1c(Nc2cc(-n3nc(C)cc3C)ncn2)n[nH]c1-c1ccc(F)cc1C` [Example 131, 6-(3,5-dimethyl-1H-pyrazol-1-yl)-N-[4-ethyl-5-(4-fluoro-2-methylphenyl)-1H-pyrazol-3-yl]pyrimidin-4-amine], which IC50 is on record?
**A.** 1.6 µM

**Q.** For `CCc1c(Nc2cc(-n3nc4ncccc4c3C)ncn2)nn(C)c1-c1ccc(F)cc1` [Example 167, N-[4-ethyl-5-(4-fluorophenyl)-1-methyl-1H-pyrazol-3-yl]-6-(3-methyl-2H-pyrazolo[3,4-b]pyridin-2-yl)pyrimidin-4-amine], which IC50 is on record?
**A.** 0.55 µM

**Q.** `Cc1cc(C)n(-c2cc(Nc3nn(C)c(-c4ccc(C#N)cc4)c3C)ncn2)n1` [Example 118, 4-(3-{[6-(3,5-dimethyl-1H-pyrazol-1-yl)pyrimidin-4-yl]amino}-1,4-dimethyl-1H-pyrazol-5-yl)benzonitrile] was tested. Which IC50 did it give?
**A.** 0.007 µM

**Q.** For `Cc1nn(-c2cc(Nc3c(C)c(-c4ccc(F)cc4)nn3CC3CC3)ncn2)c(C)c1C(F)(F)F` [Example 381, N-[1-(cyclopropylmethyl)-3-(4-fluorophenyl)-4-methyl-1H-pyrazol-5-yl]-6-[3,5-dimethyl-4-(trifluoromethyl)-1H-pyrazol-1-yl]pyrimidin-4-amine], which IC50 is on record?
**A.** 0.008 µM

**Q.** With `CCc1c(Nc2cc(-n3nc(C)c(CCO)c3C)ncn2)nn(C)c1-c1ccc(F)cc1` [Example 92, 2-[1-(6-{[4-ethyl-5-(4-fluorophenyl)-1-methyl-1H-pyrazol-3-yl]amino}pyrimidin-4-yl)-3,5-dimethyl-1H-pyrazol-4-yl]ethanol] as the compound, how does the IC50 read?
**A.** 0.82 µM

**Q.** How did the IC50 turn out when `Cc1cc(C)n(-c2cc(Nc3c(C)c(-c4ccc(C5CN(C(=O)OC(C)(C)C)C5)cc4)nn3C)ncn2)n1` [Example 323, tert-butyl 3-[4-(5-{[6-(3,5-dimethyl-1H-pyrazol-1-yl)pyrimidin-4-yl]amino}-1,4-dimethyl-1H-pyrazol-3-yl)phenyl]azetidine-1-carboxylate] was run?
**A.** 0.66 µM

**Q.** Which IC50 does the source give for `CCOC(=O)c1c(C)nn(-c2cc(Nc3c(C)nn(-c4ccc(F)cc4)c3C)ncn2)c1C` [Example 453, ethyl 1-(6-{[1-(4-fluorophenyl)-3,5-dimethyl-1H-pyrazol-4-yl]amino}pyrimidin-4-yl)-3,5-dimethyl-1H-pyrazole-4-carboxylate] here?
**A.** 0.018 µM

**Q.** `COc1c(C)nn(-c2cc(Nc3c(C)nn(-c4ccc(F)cc4)c3C)ncn2)c1C` [Example 463, N-[1-(4-fluorophenyl)-3,5-dimethyl-1H-pyrazol-4-yl]-6-(4-methoxy-3,5-dimethyl-1H-pyrazol-1-yl)pyrimidin-4-amine] was tested. Which IC50 did it give?
**A.** 0.034 µM

**Q.** Which IC50 does the source give for `Cc1nn(-c2cc(Nc3c(C)c(-c4ccc(C(F)F)nc4)nn3CC3CC3)ncn2)c(C)c1Cl` [Example 511, 6-(4-chloro-3,5-dimethyl-1H-pyrazol-1-yl)-N-{1-(cyclopropylmethyl)-3-[6-(difluoromethyl)pyridin-3-yl]-4-methyl-1H-pyrazol-5-yl}pyrimidin-4-amine] here?
**A.** 0.12 µM

**Q.** With `CCc1c(-c2ccc(C#N)cc2)nn(CC2CC2)c1Nc1cc(-n2nc(C)c(C(C)=O)c2C)ncn1` [Example 202, 4-[5-{[6-(4-acetyl-3,5-dimethyl-1H-pyrazol-1-yl)pyrimidin-4-yl]amino}-1-(cyclopropylmethyl)-4-ethyl-1H-pyrazol-3-yl]benzonitrile] as the compound, how does the IC50 read?
**A.** 0.013 µM

**Q.** For `Cc1c(-c2ccc(F)cc2)nn(CC2CC2)c1Nc1cc(-n2cc(C(F)(F)F)cn2)ncn1` [Example 426, N-[1-(cyclopropylmethyl)-3-(4-fluorophenyl)-4-methyl-1H-pyrazol-5-yl]-6-[4-(trifluoromethyl)-1H-pyrazol-1-yl]pyrimidin-4-amine], which IC50 is on record?
**A.** 0.059 µM

**Q.** How did the IC50 turn out when `Cc1nn(-c2cc(Nc3c(C)c(-c4ccc(F)cn4)nn3CC3CC3)ncn2)c(C)c1Cl` [Example 439, 6-(4-chloro-3,5-dimethyl-1H-pyrazol-1-yl)-N-[1-(cyclopropylmethyl)-3-(5-fluoropyridin-2-yl)-4-methyl-1H-pyrazol-5-yl]pyrimidin-4-amine] was run?
**A.** 0.039 µM

**Q.** Which IC50 does the source give for `COc1ccc(-c2nn(C)c(Nc3cc(-n4nc(C)cc4C(F)F)ncn3)c2C)cn1` [Example 499, 6-[5-(difluoromethyl)-3-methyl-1H-pyrazol-1-yl]-N-[3-(6-methoxypyridin-3-yl)-1,4-dimethyl-1H-pyrazol-5-yl]pyrimidin-4-amine] here?
**A.** 3.15 µM

**Q.** Which IC50 does the source give for `COCCn1nc(-c2ccc(F)cn2)c(C)c1Nc1cc(-n2nc(C)cc2C(F)F)ncn1` [Example 543, 6-[5-(difluoromethyl)-3-methyl-1H-pyrazol-1-yl]-N-[3-(5-fluoropyridin-2-yl)-1-(2-methoxyethyl)-4-methyl-1H-pyrazol-5-yl]pyrimidin-4-amine] here?
**A.** 0.48 µM
